“Also recorded” adds a separate entry of the source.
How the values were obtained:
[1] = tested on: T. brucei brucei BSF; test: T. brucei BSF viability, resazurin reduction; format: cell-based, Trypanosoma brucei brucei; conditions: Trypanosoma brucei
[2] = tested on: human hepatocyte carcinoma HepG2 cells; test: Cytotoxicity assay HepG2, resazurin reduction; format: cell-based
Method: Mammalian cell lines (J774 and HepG2) were passaged in RPMI media supplemented with MEM, Pen-Strep (1%) and 10% FCS. Cultures were kept at 37°C incubator with 5% CO2 in filter-cap flasks.
Murine macrophage cells (J774) and human hepatocyte carcinoma HepG2 cells were seeded at 0.5x10^5 cell/well in 384 well plates in triplicate, exposed to serial dilution of compounds, dispensed using an Echo 650 acoustic dispenser (Labcyte). After incubation for 72 h at 37°C, 5% CO2, cell viability was determined using fluorescence resazurin reduction assay (λEx: 550 nm; λEm: 590 nm).

[3] = tested on: T. brucei 2T1 RNAi lines; test: Dose response after targeted stem-loop RNAi knockdown; format: cell-based, Trypanosoma brucei
Method: Selected genes with the high reads were validated by individual RNAi targeting. Briefly, gene-specific RNAi fragments of 400–600 bp were amplified with PCR primers designed with RNAit tool (S1 Table) and cloned into pRPa^iSL to generate stem-loop, ‘hairpin’ dsRNA to induce RNAi knockdown. The AscI linearized plasmid was transfected into 2T1 cells and positive colonies were selected with hygromycin (2.5 μg/ml). Positive, puromycin sensitive clones were analysed by PHT-39 dose response analysis after 24 h tetracycline induction and compared to uninduced controls and parental lines.

[4] = tested on: E. histolytica; test: E. histolytica viability, ATP luminescence (Cell titer glo); format: cell-based, Entamoeba histolytica; conditions: Entamoeba histolytica, 48 h
Summary of the method: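 E. histolytica strain B2-5 at 2.5x10^4 cells/ml was exposed to compound for 48 h at 37 °C under anaerobic conditions, with viability read as ATP luminescence (CellTiter-Glo). The primary screen used 25 μM in triplicate, and follow-up potency runs used 9–16-point ranges spanning 0.01–100 μM.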

[5] = 24 h tetracycline induction vs uninduced

Question: What does the source list for CC[C@@H](C)[C@H](c1nc2ccccc2n1Cc1cn(-c2ccc(C(F)(F)F)cc2)nn1)N1C(=O)c2ccccc2C1=O [PHT-39]?
Answer: viability at 2.5 µM ([1]; 72 h, read-out: Residual viability, T.brucei (2.5 µM), BSF, 2.5 µM, 72 h): 64.9 ± 7.25%; viability at 25 µM ([1]; 72 h, read-out: Residual viability, T.brucei (25 µM), BSF, 25 µM, 72 h): 2.85 ± 2.88%; EC50 ([1]; read-out: EC50 T. brucei BSF, dose response, triplicate, ± SD (Table 2) / ± SE (S3 Table)): 3.9 ± 1.7 µM; Selectivity ([2]; HepG2 cytotoxicity vs intramacrophage L. infantum): over 90 fold; EC50 ([2]; Homo sapiens, HepG2, 72 h, cytotoxicity, 72 h, read-out: EC50 (CT50) HepG2): > 100 µM; Sensitivity shift after RNAi of HSP104 homolog (ClpB1) Tb927.2.5980 [3]: did not elicit a significant PHT-39 sensitivity shift; also recorded: did not determine a significant sensitivity shift; Sensitivity shift after RNAi of nicotinamidase paralogs Tb927.9.3970 and Tb927.9.4040 [3]: did not elicit a significant PHT-39 sensitivity shift; also recorded: did not determine a significant sensitivity shift; EC50 shift after RNAi of miltefosine transporter Tb927.11.3350 [3, 5]: mild but significant EC50 increase; Sensitivity shift after knockdown of ESAG5 [3, 5]: very modest but significant sensitivity shift; viability at 2.5 µM ([4]; read-out: Residual viability, E.histolytica (2.5 µM)): 81.6 ± 12.6%; viability at 25 µM ([4]; read-out: Residual viability, E.histolytica (25 µM)): 44.5 ± 9.9%
